Columns and labels:
mouse BCRP (ABCG2) [1] = target: T1, mouse BCRP (ABCG2) (Mus musculus, UniProt Q7TMS5); assay: Substrate activity at mouse BCRP assessed as efflux ratio at 1 uM; assay type: ADME; details: not told
T1 sequence (Q7TMS5 whole entry): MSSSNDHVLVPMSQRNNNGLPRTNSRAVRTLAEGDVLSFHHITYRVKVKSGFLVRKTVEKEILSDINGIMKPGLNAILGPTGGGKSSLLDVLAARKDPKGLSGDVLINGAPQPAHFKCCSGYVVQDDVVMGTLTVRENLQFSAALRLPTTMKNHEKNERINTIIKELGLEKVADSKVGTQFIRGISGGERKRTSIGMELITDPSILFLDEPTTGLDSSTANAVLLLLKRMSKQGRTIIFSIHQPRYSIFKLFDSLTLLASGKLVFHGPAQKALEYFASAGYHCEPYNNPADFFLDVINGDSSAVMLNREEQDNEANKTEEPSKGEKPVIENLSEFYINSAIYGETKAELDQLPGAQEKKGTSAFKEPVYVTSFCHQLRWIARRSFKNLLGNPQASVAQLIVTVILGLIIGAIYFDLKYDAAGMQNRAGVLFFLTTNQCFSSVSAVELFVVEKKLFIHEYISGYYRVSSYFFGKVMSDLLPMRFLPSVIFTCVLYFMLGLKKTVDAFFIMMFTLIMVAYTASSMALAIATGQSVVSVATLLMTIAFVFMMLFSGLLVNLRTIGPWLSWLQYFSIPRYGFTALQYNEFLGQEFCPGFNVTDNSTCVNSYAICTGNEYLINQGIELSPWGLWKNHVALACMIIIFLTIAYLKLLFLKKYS

[2] = target: T2, 5-hydroxytryptamine receptor 3A (Homo sapiens, UniProt P46098); assay: Antagonist activity at human 5HT3A expressed in HEK293 cells incubated for 1 hr by FLIPR assay; assay type: cell-based
T2 sequence (P46098 whole entry): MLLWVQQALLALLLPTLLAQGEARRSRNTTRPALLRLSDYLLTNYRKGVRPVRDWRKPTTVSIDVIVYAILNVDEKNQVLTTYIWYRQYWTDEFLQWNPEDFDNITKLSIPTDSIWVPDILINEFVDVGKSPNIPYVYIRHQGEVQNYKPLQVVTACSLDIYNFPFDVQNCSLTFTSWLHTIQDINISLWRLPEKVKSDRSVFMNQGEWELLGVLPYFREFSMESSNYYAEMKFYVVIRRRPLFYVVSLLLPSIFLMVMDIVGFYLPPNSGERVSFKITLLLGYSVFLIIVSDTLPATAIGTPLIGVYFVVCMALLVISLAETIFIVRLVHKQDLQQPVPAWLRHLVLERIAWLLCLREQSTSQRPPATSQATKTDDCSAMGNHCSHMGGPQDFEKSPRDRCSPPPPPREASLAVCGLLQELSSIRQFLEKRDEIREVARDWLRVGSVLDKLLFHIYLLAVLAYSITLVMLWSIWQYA

[3] = Intrinsic clearance in rat at 5 to 10 mg/kg, po or 0.05 to 2 mg/kg, iv; assay type: ADME, organism-based; details: in vivo, dose 5-10 mg/kg
Homo sapiens = species on record: Homo sapiens; assay: Selectivity ratio of IC50 for human 5HT3A to IC50 for GCS (unknown origin)
mouse BCRP (ABCG2) [4] = target: T1, mouse BCRP (ABCG2); assay: Substrate activity at mouse BCRP assessed as apparent permeability at 1 uM; assay type: ADME; details: not told
[5] = Mean residence time in rat at 5 to 10 mg/kg, po or 0.05 to 2 mg/kg, iv; assay type: ADME, organism-based; details: in vivo, dose 5-10 mg/kg
[6] = target: T3, Ceramide glucosyltransferase (Homo sapiens, UniProt Q16739); assay: Inhibition of GCS in human fibroblast; assay type: cell-based
T3 sequence (Q16739 whole entry): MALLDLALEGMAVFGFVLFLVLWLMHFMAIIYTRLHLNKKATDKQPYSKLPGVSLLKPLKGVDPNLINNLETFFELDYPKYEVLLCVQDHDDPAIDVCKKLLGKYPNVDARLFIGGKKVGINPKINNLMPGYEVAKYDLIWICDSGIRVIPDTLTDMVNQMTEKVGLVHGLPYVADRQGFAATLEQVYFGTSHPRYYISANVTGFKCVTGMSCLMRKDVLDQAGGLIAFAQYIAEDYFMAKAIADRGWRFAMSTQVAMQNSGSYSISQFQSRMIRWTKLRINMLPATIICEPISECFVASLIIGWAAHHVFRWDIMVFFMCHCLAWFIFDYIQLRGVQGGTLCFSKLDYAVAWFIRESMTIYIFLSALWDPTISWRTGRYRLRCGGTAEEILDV

rat P-gp [7] = assay: Substrate activity at rat P-gp assessed as efflux ratio at 1 uM; assay type: ADME; details: not told
[8] = target: T3, Ceramide glucosyltransferase; assay: Inhibition of Glucosylceramide synthase (unknown origin) using C6-ceramide and UDP-glucose as substrate preincubated for 30 mins followed by substrate addition and measured after 2 hrs by UDP-Glo luminometer analysis
[9] = Bioavailability in rat at 5 to 10 mg/kg, po or 0.05 to 2 mg/kg, iv; assay type: ADME, organism-based; details: in vivo, dose 5-10 mg/kg
[10] = Lipophilicity, logD of compound by HPLC method; assay type: physicochemical
rat P-gp [11] = assay: Substrate activity at rat P-gp assessed as apparent permeability at 1 uM; assay type: ADME; details: not told

Structure (SMILES) | efflux ratio at 1 µM (mouse BCRP (ABCG2) [1]) | IC50 [2] | CL [3] | Ratio IC50 (Homo sapiens) | Papp at 1 µM (mouse BCRP (ABCG2) [4]) | MRT [5] | IC50 [6] | efflux ratio at 1 µM (rat P-gp [7]) | IC50 [8] | bioavailability [9] | logD [10] | Papp at 1 µM (rat P-gp [11])
O=C(N1CCN2CCC1CC2)n1nc(-n2cc(Cl)cn2)c2c1COCC2 | 1.4 | 585 nM | 120 mL/min/kg | 96 | 32 ×10⁻⁶ cm/s | 1.1 h | 37 nM | 4.4 |  |  |  | 
CCN1CCCN(C(=O)c2nn(-c3ccc(OC)cc3)c3c2COCC3)CC1 |  |  |  |  |  |  |  |  | 7400 nM |  |  | 
COc1ccc(-c2nn(C(=O)N3CCN4CCC3CC4)c3c2CCOC3)cc1 | 1.4 | 338 nM | 3510 mL/min/kg | 164 | 32 ×10⁻⁶ cm/s | 0.7 h | 35 nM | 4.4 |  |  |  | 
COc1ccc(-n2nc(C(=O)N3CC(c4cnc(C)n4C)C3)c3c2CCOC3)cc1 |  |  |  |  |  |  |  |  | > 28000 nM |  |  | 
O=C(N1CCN2CCC1CC2)n1nc(-n2cc(C(F)(F)F)cn2)c2c1CCC2 | 0.8 | 2190 nM | 89 mL/min/kg | 5480 | 24 ×10⁻⁶ cm/s | 5.9 h | 32 nM | 1.7 |  | 25% |  | 
O=C(N1CCN2CCC1CC2)n1nc(-n2cc(C(F)(F)F)cn2)c2c1[C@H]1C[C@H]1C2 | 0.8 | 2470 nM | 85 mL/min/kg | 25000 | 23 ×10⁻⁶ cm/s | 8.2 h | 33 nM | 2.2 |  | 67% |  | 
O=C(c1nn(-c2ccc(F)c(Cl)c2)c2c1COCC2)N1CCN2CCC1CC2 |  |  |  |  |  |  |  | 19 | 6 nM |  | 1.9 | 32 ×10⁻⁶ cm/s
O=C(N1CCN2CCC1CC2)n1nc(-c2ccc(C(F)(F)F)cc2)c2c1COCC2 | 1.2 | 1590 nM | 610 mL/min/kg | 647 | 33 ×10⁻⁶ cm/s | 3.3 h | 21 nM | 3.2 |  |  |  | 
COc1ccc(-n2nc(C(=O)N3CCCNCC3)c3c2CCOC3)cc1 |  |  |  |  |  |  |  |  | 690 nM |  |  | 
O=C(N1CCN2CCC1CC2)n1nc(-c2ccc(F)c(Cl)c2)c2c1COCC2 |  |  |  |  |  |  |  | 1.7 | 1 nM |  | 2.8 | 24 ×10⁻⁶ cm/s
COc1ccc(-n2nc(C(=O)N3CCN4CCC3CC4)c3c2CCOC3)cc1 |  |  |  |  |  |  |  |  |  |  |  | 31 ×10⁻⁶ cm/s
COc1ccc(-n2nc(C(=O)N3CCNCC(CO)C3)c3c2CCOC3)cc1 (racemic) |  |  |  |  |  |  |  |  |  |  |  | 6 ×10⁻⁶ cm/s
CC1(C)Cc2c(c(-c3ccc(F)cc3)nn2C(=O)N2CCN3CCC2CC3)CO1 | 0.9 | 4210 nM | 180 mL/min/kg | 470 | 31 ×10⁻⁶ cm/s | 2.6 h | 32 nM | 8.5 |  |  |  | 
COc1ccc(-n2nc(C(=O)N3CCCN(C)CC3)c3c2CCOC3)cc1 |  |  |  |  |  |  | 180 nM | 5 | 1000 nM |  |  | 
COc1ccc(-n2nc(C(=O)N3CCN(C)CC(F)C3)c3c2CCOC3)cc1 (racemic) |  |  |  |  |  |  |  |  | 12500 nM |  |  | 
O=C(N1CCN2CCC1CC2)n1nc(-n2cc(C(F)(F)F)cn2)c2c1CCOC2 | 1.2 | 7470 nM | 39 mL/min/kg | 2070 | 42 ×10⁻⁶ cm/s | 3.2 h | 32 nM | 2.7 |  |  |  | 
